# Data: PMC9501232, “Novel 4-Azapregnene Derivatives as Potential Anticancer Agents: Synthesis, Antiproliferative Activity and Molecular Docking Studies” (Molecules, 2022)
# Assays:
# LNCaP cells [1] = assay: Flow cytometry cell viability after PI staining; assay type: cell-based, human; conditions: 50 µM
# Method: Similar to the previous study, the analysis of cell viability was accomplished by flow cytometry after staining dead cells with propidium iodide (PI; Invitrogen, Carlsbad, USA). Succinctly, 1 mL of a cell suspension was seeded in 12-well culture plates (initial cell density of 5 × 10^4 cells/mL of LNCaP cells for 24 h assay and 2 × 10^4 cells/mL of the same cell line for 72 h assay) in a complete culture medium. After 48 h, the cells were treated with finasteride and 5-FU, as positive controls, and compound 3g at a concentration of 50 µM. Untreated cells were used as a negative control. At the pretended time point, the supernatant was collected and pooled with the cells harvested by trypsin treatment (each well was also washed with 400 µL of PBS before trypsin treatment). The resulting cell suspension was kept on ice and pelleted by centrifugation and resuspended with 400 µL of complete medium. Afterward, 5 µL of PI (1 mg/mL) was transferred to a FACS tube and 395 µL of the cell suspension was added to this tube. A total of 20,000 events (very small events excluded) were acquired using a FACSCalibur flow cytometer, using the FCS, SSC and FL3 (PI) channels. Acquisition and analysis were executed with CellQuestTM Pro (v. 5.1) software. […] The percentages of each region were calculated for a total of R1 + R2 + R3. […]
# LNCaP cells [2] = assay: MTT cell proliferation assay, LNCaP; assay type: cell-based, human; conditions: 72 h
# Method: (§1) Cell lines, namely LNCaP, PC-3, T47-D and NHDF were obtained from American Type Culture Collection (ATCC; Manassas, VA, USA) and cultured in 75 cm^2 culture flasks at 37 °C in a humidified air incubator with 5% CO2. LNCaP, PC-3 and T47-D cells, which were used in passages 20th to 27th, 25th to 29th and 10th to 15th, respectively, were cultured in RPMI 1640 medium (Sigma-Aldrich, Inc., St. Louis, MO, USA) with 10% fetal bovine serum (FBS; Sigma-Aldrich, Inc. St. Louis, MO, USA) and 1% of the antibiotic mixture of 10,000 IU/mL penicillin G and […] of streptomycin (Sp, Sigma-Aldrich, Inc. St. Louis, MO, USA). Finally, NHDF cells (Normal Human Dermal Fibroblasts) were cultured in RPMI 1640 medium supplemented with 10% FBS, 2 mM L-glutamine, 10 mM HEPES, 1 mM sodium pyruvate and 1% of an antibiotic/antimycotic mixture (10,000 U/mL penicillin G, 100 mg/mL streptomycin and 25 µg/mL amphotericin B) (Ab; Sigma-Aldrich, Inc. St. Louis, MO, USA), and these cells were used in passages 10 to 12. For all cell types, the medium was renewed every 2–3 days until cells reach nearly the confluence state. Then, they were detached gently by trypsinization (trypsin-EDTA solution: 0.125 g/L of trypsin and 0.02 g/L of EDTA).
# (§2) All the stock solutions were prepared by dissolving compounds in dimethyl sulfoxide (DMSO; Sigma-Aldrich, Inc., St. Louis, MO, USA) at 10 mM and stored at 4 °C. From these solutions, the several diluted compounds solutions in different concentrations were freshly prepared in a complete culture medium before each experiment.
# (§3) As previously referred, cells were trypsinized after reaching a near confluence state and counted by the trypan blue exclusion assay in a Neubauer chamber. Then, 100 µL of cell suspension/well with an initial density of 2 × 10^4 cells/mL were seeded in 96-well culture plates (Nunc, Apogent, Denmark) and left to adhere for 48 h. After cells adherence, the medium was replaced by the distinct solutions of the compounds in the study (30 µM for preliminary studies and 0.01, 0.1, 1, 10, 50 and 100 µM for concentration–response studies) in the appropriate medium for approximately 72 h. 5-FU and finasteride were used as positive controls and untreated cells were used as the negative control. Each experiment was performed in quadruplicate and independently performed at least two times. The in vitro antiproliferative effects were evaluated by the MTT assay (Sigma-Aldrich, Inc. St. Louis, USA). After the incubation period, the medium was removed and 100 µL of phosphate buffer saline (NaCl 137 mM, KCl 2.7 mM, Na2HPO4 10 mM and KH2PO4 1.8 mM in deionized water and pH adjusted to 7.4) were used to wash the cells. Then, 100 µL of the MTT solution (5 mg/mL) was prepared in the appropriate serum-free medium and was added to each well, followed by incubation for 4 h at 37 °C. Hereafter, the MTT containing medium was removed and the formazan crystals were dissolved in DMSO. Then the absorbance was measured at 570 nm using a microplate spectrophotometer BIO-RAD xMarkTM. Cell viability values were expressed as percentages relative to the absorbance determined in the cells used as negative controls.
# (§4) The data are expressed as a mean ± standard deviation (SD) and differences between groups were considered statistically significant when p < 0.05. The IC50 values were determined through sigmoidal fitting analysis with variable slope and considering a 95% confidence level. All data shown are representative of at least two independent experiments.
# [3] = tested on: NHDF cells (Normal Human Dermal Fibroblasts); assay: MTT cell proliferation assay, NHDF; assay type: cell-based; conditions: 72 h
# Method: as §1, §2, §3, §4
# T47-D cells = assay: Fluorescence microscopy, PI/Hoechst 3342 staining; assay type: cell-based, human; conditions: 20 µM, 24, 48 and 72 h, vs negative and positive controls
# Method: To access the effects of the compound 3g in T47-D cells, fluorescence microscopy assays with Hoechst 3342 and PI staining were performed. T47-D cells were seeded at 2 × 10^4 cells/mL in a 24-well culture plate containing circular coverslips of 10 mm diameter, in a complete culture medium. After 48 h, cells were incubated during 24, 48 and 72 h, with 5-FU at 20 µM, as the positive control, steroid 3g at 20 µM, and untreated cells were used as a negative control. Then, cells were incubated with 20 µL/per well of a solution of PI in PBS at 1 mg/mL for 25 min at 37 °C. The medium was removed, and the cells were fixed with formalin 4% for 15 min at room temperature. Cells were washed three times with PBS and then they were incubated with 30 µL/per coverslip of Hoechst 33,342 (1:500) for 10 min. After incubation, cells were washed three times with PBS. Coverslips were mounted on a drop of permanent mounting medium (Dako) on a microscope slide and visualized in a Zeiss Axio Imager A1 microscope with the 40 × objective. The PI/Hoechst 3342 ratio was calculated by dividing PI-positive cells by Hoechst 3342-positive cells and, then the values were normalized.
smiles,measurement,setting,value
"C[C@]12CC[C@H]3[C@@H](CC=C4NC(=O)CC[C@@]43C)[C@@H]1CC[C@@H]2C(=O)/C=C/c1cccnc1 [Compound 3g, 21E-[(Pyridin-3-yl)methylidene]-4-azapregn-5-ene-3,20-dione]",Number of living cells (PI non-permeant),LNCaP cells [1]; 24 h,drastic reduction in the number of living cells
same,Number of viable cells (PI non-permeant),LNCaP cells [1]; 72 h,almost absent
same,"MTT screening, cell proliferation","LNCaP cells [2]; 30 µM, average ± SD",0.7 ± 1.0 percentage of negative control
same,IC50,"LNCaP cells [2]; Homo sapiens, MTT",10.2 µM
same,"MTT screening, cell proliferation","[3]; 30 µM, average ± SD",23.8 ± 3.2 percentage of negative control
same,IC50,"[3]; Homo sapiens, MTT",3.09 µM
same,Ratio of PI/Hoechst 3342 staining,T47-D cells,higher ratio of PI/Hoechst 3342 staining
